Measured values reported in patent US6423834B1, “KDO aldolase and condensation reactions employed therewith” (The Scripps Research Institute, priority 1992, dated 2002).
Like-named read-outs stand apart in the source and are kept apart here.

How the values were obtained:
[1] = tested on: KDO aldolase (EC 4.1.2.23); assay: KDO aldolase-catalyzed aldol condensation of sugars with pyruvate (kinetic and relative rate measurements via remaining pyruvate); type: biochemical, Aureobacterium barkerei strain KDO-37-2; settings: for rel. V (relative rate of aldol condensation): pyruvate 10 mM, sugar 0.5 M, 0.1 M phosphate pH 7.5, 37° C., relative to D-arabinose
Excerpt: (§1) Partially purified KDO aldolase simply obtained by ammonium sulfate precipitation (8.0 U/mL; 0.19 U/mg for degradation of KDO) was used in substrate-specificity studies reported herein. The KDO aldolase employed for the kinetic analysis reported herein, was further purified via DEAE sepharose and phenyl sepharose column chromatography to a specific activity of 5.7 U/mg. […] The enzymatic reaction favors the cleavage of KDO, with the equilibrium constant Keq=[pyruvate][arabinose]/KDO=9×10^−2M.
The rates for aldolase-catalyzed reactions were obtained by measuring the amount of remaining pyruvate, according the method of Kim (supra). The reactions were carried out in 0.1 M phosphate buffer (pH 7.5) containing: varied concentrations of pyruvate, 2.0, 3.33, 5, and 10 mM; varied concentrations of D-arabinose, 0.2, 0.25, 0.33, and 0.50 M in 0.5 mL of solution. Each solution was incubated at 37° C. Periodically, a small aliquot (25-100 μL) was withdrawn and mixed with an assay solution (1.4 mL) containing 0.1 M phosphate (pH 7.5) buffer, 0.3 mM NADH, and 20-30 U of L-lactate dehydrogenase. The decrease in absorbance at 340 nm was measured and converted into the amount of the unreacted pyruvate using 6220 M^−1cm^−1 for the molecular absorbance of NADH. The kinetic parameters were obtained from the Lineweaver-Burk plots.
For the relative rate measurements, the concentration of pyruvate (fluoropyruvate) and sugar were fixed at 10 mM and 0.5 M, respectively. Other conditions were the same as above.

[2] = tested on: KDO aldolase; settings: enzyme from E. coli; cited from earlier work
[3] = tested on: KDO aldolase; settings: enzyme from Aerobacter cloacae; cited from earlier work
[4] = tested on: KDO aldolase (EC 4.1.2.23); assay: KDO aldolase degradation (cleavage) of KDO; type: biochemical, Aureobacterium barkerei strain KDO-37-2; settings: read-out: Km in the course of degradation
Procedure: It is disclosed herein that the Gram-positive bacterium Aureobacterium barkerei strain KDO-37-2 can be induced to contain high levels of KDO aldolase. The aldolase activity from this source was assayed according to Aminoff's method (Biochem. J. 1961, 81, 384). Two liters of culture contained 10.2 U based on the degradation of KDO. This KDO activity is 4 times and 8 times higher than the corresponding KDO activity from Escherichia coli K-12 and Aerobacter cloacae, respectively, as reported by Gharambor (supra).
as §1
With one slight modification, the incubation was carried out according to the procedure reported by Gharambor (supra). […] The enzyme activity was determined to be 1.45 U/mL for the degradation of KDO according to the method of Aminoff (Biochem. J. 1961, 81, 384). […]

[5] = Proportion of β-isomer by comparing 1H NMR spectra; type: physicochemical
Procedure: Finally, the aldol reaction with an unnatural sugar containing a fluorine atom was conducted to give 18 (19% of 19). By comparing the ^1H NMR spectra, the proportion of the β-isomer (10.71) of 18 was ca. 1.5 times higher than that of KDO (6.9%), probably due to the absence of furanose and 1<<5 lactone forms. […] (Kohlbrenner, W. E. and Fesik, S. W., J. Biol. Chem. 1985, 260, 14695.) We therefore synthesized 18 in a larger scale by combining the use of KDO aldolase and pyruvate decarboxylase, which made the workup procedure much easier.

O=CC[C@H](O)[C@H](O)CO [2-deoxy-D-ribose]
rel. V (relative rate of aldol condensation) [1]: 71%

O=C[C@@H](O)[C@H](O)[C@H](O)[C@H](O)CO [D-altrose]
rel. V (relative rate of aldol condensation) [1]: 25%

O=C[C@@H](O)[C@H](O)[C@H](O)CO [D-arabinose, reference compound]
Vmax ([1]; condensation of D-arabinose with pyruvate, enzyme purified to 5.7 U/mg): 0.73 U/mg

O=C[C@H](O)[C@H](O)[C@H](O)CO [D-ribose]
rel. V (relative rate of aldol condensation) [1]: 72% | rel. V [2]: < 5% | rel. V [3]: < 5%

O=C(O)C(=O)C[C@@H](O)[C@@H](O)[C@H](O)[C@H](O)CO [KDO, 3-deoxy-D-manno-2-octulosonic acid]
Km [4]: 6 mM | proportion of the β-isomer [5]: 6.9%

C[C@H](O)[C@@H](O)[C@@H](O)[C@H](O)C=O [L-fucose]
rel. V (relative rate of aldol condensation) [1]: rate not detectable

O=C(O)C(=O)CF [fluoropyruvate]
accepted as substrate for the condensation [1]: neither fluoropyruvate nor ketohexose was accepted
